The source of these data is PubChem BioAssay (NCI).

What all share (experiment): inhibition of tumour cell growth, NCI panel, 48 h
The subject of test [1] is A549 NSCLC.
Test [2] relates to SF-539 CNS.
For test [3], the system named is DU-145 prostate.
Test [4] has as its system SNB-75 CNS.
Test [5] concerns SK-MEL-2 melanoma.
Test [6] relates to MOLT-4 leukemia.
In test [7] the test system is OVCAR-8 ovarian.
The subject of test [8] is SK-OV-3 ovarian.
Test [9] has as its system OVCAR-4 ovarian.
The subject of test [10] is NCI-H23 lung.
Test [11] concerns HT29 colon.
The test system of test [12] is MDA-MB-231 breast.

The structures appear in SMILES notation.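 48-hour exposure; five concentrations; linearly interpolated endpoints. TGI denotes the concentration required for complete inhibition of growth.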

Regarding `COc1cc(OC)cc(Oc2nc3ccccc3nc2C(F)(F)F)c1`, the TGI in [1], in test [2], in test [3], in test [4], in [5] and in test [6] was > 100 µM in each case. Moreover, the TGI in test [7] is > 100 µM; in [8], > 100 µM; in test [9], > 100 µM; in test [10], > 100 µM; in test [11] it was > 100 µM; in [12], 94.9 µM.

With `[N-]=[N+]=Nc1c([N+](=O)[O-])c(=O)n(-c2ccccc2)c2ccccc12`, the TGI in test [1] was > 100 µM; in test [2], 47.1 µM; in test [3], > 100 µM; in test [4], 68.1 µM; in [5] it was 52.5 µM; in test [6], 59.1 µM. Also, the TGI in test [7] is 48.9 µM; in test [8], > 100 µM; in test [9], 49.4 µM; in test [10], 60.7 µM; in test [11], > 100 µM; in [12], 59.2 µM.

Consider `CN1CCc2c([nH]c3ccccc23)C1`, for which the TGI in test [1], in test [3], in [4], in test [5], in test [6] and in test [7] was > 100 µM throughout. The TGI in test [8], in test [9], in test [10], in test [11] and in test [12] was > 100 µM each time.

Regarding `Brc1ccc2[nH]cc(-c3csc(-c4c[nH]c5ccccc45)n3)c2c1`, the TGI in test [1] was determined as 20.2 µM; in [2] it was 16.7 µM; in test [3], 9.15 µM; in test [4], 23.9 µM; in [5] it was 9.36 µM; in test [6], 6.18 µM. The TGI amounted to 21.2 µM in [7]; 20.7 µM in [8]; 28.1 µM in [9]; 8.21 µM in [10]; 3.29 µM in test [11]; 6.37 µM in [12].

Consider `CC1=C(C)CC2C(=O)N(c3cc(C(C)(C)C)ccc3C(C)(C)C)C(=O)C2C1` (stereo not drawn), for which the TGI is > 100 µM in test [1]; > 100 µM in [2]; > 100 µM in test [3]; 56.2 µM in [4]; > 100 µM in test [5]; > 100 µM in [6]. Moreover, the TGI in test [7], in test [8], in test [9], in test [10], in test [11] and in test [12] was > 100 µM each time.

As for `O=[N+]([O-])c1ccc2[nH]c(=S)[nH]c(=S)c2c1`, the TGI in [1], in [2], in test [3], in test [4], in [5] and in test [6] was > 100 µM in each case. Further, the TGI in test [7], in test [8], in test [9], in test [10], in [11] and in test [12] was > 100 µM each time.

`COc1cc(C2c3cc4c(cc3OC(N3CCCCC3)C2C)OCO4)cc(OC)c1O` (stereo not drawn): the TGI in test [1] is 27.1 µM; in [2] it was 25.5 µM; in test [3], 49.6 µM; in [4], 13.7 µM; in test [5], 25.2 µM; in [6], > 91.3 µM. Moreover, the TGI is 36.7 µM in [7]; 19.9 µM in test [8]; > 61.2 µM in test [9]; > 66.9 µM in [10]; > 37.5 µM in test [11]; 28.1 µM in [12].

With `Cc1ccnc2[nH]c(-c3ccc4ccccc4c3)cc(=O)c12`, the TGI in test [1] is 16.1 µM; in [2], 6.79 µM; in [3], 35.1 µM; in test [4] it was 4.6 µM; in [5], 28.2 µM; in test [6], > 100 µM. The TGI is 14 µM in test [7]; 5.32 µM in test [8]; 4.45 µM in test [9]; 15.3 µM in [10]; 12.4 µM in test [11]; 8.58 µM in test [12].

In the case of `CC(=O)CCn1c(=S)sc2ccccc21`, the TGI in [1], in [2], in test [3], in test [4], in test [5] and in test [6] was > 100 µM in each case. Also, the TGI in [7], in [8], in [9], in test [10], in test [11] and in test [12] was > 100 µM in each case.

`Cc1ccc(-n2cnc(C(=N)C#N)c2N)cc1`: the TGI in test [1], in [2], in test [3], in test [4], in test [5] and in [6] was > 100 µM in each case. For the same molecule, the TGI in test [7], in test [8], in test [9], in [10], in test [11] and in [12] was > 100 µM each time.

Regarding `O=C(/C=C/c1ccccc1)Oc1cccc(O)c1`, the TGI was > 100 µM in test [1]; > 100 µM in test [2]; > 100 µM in test [3]; > 100 µM in [4]; > 100 µM in [5]; 21.8 µM in test [6]. Besides, the TGI in test [7], in test [8], in [9], in test [10], in [11] and in test [12] was > 100 µM each time.

Turning to `CCOC1(OCC)C2C=CC1C(COS(=O)(=O)c1ccc(C)cc1)C2COS(=O)(=O)c1ccc(C)cc1` (stereo not drawn), the TGI in [1] is > 100 µM; in test [2], > 100 µM; in [3], > 100 µM; in [4], > 100 µM; in test [5], 80.9 µM; in test [6], 99.3 µM. In addition, the TGI in test [7] was > 100 µM; in test [8], > 100 µM; in test [9], 79.2 µM; in test [10], > 100 µM; in [11], > 100 µM; in [12] it was 69.5 µM.
